From paper PMC6104039 (Nature Communications, 2018)
“And” between values parts separate entries of the source, which are not always exact repeats. Equal entries are not always repeated.

Tested on: SkM
Experiment: Lipidomic profiling of skeletal muscle (quadriceps) of mice on chow or HFD
Format: in vivo
Excerpt: Male C57BL6/J mice were obtained from the Animal Resources Centre in Perth (WA, Australia). […] Treatment was commenced at the same time as mice were randomised to dietary groups. The experiments were approved by the UNSW animal care and ethics committee (ACEC 15/48B), and followed guidelines issued by the National Health and Medical Research Council of Australia.
Lipids were extracted from frozen tissue samples or cells using a two-phase procedure with methyl-tert-butyl ether (MTBE)/methanol/water (10:3:2.5, v/v/v)[67]. Frozen tissue samples (~20 mg) were homogenized in 0.2 mL methanol containing 0.01% butylated hydroxytoluene (BHT), using a Precellys 24 homogenizer and Cryolys cooling unit (Bertin Technologies) with CK14 (1.4-mm ceramic) beads. The homogenates were spiked with an internal standard mixture comprising 5 nmole 19:0/19:0 phosphatidylcholine and 2 nmole each of 17:0/17:0 phosphatidylethanolamine, 17:0/17:0 phosphatidylserine, 17:0/17:0 d5-diacylglycerol, 17:0/17:0 phosphatidylglycerol, 14:0/14:0/14:0/14:0 cardiolipin, 18:1/12:0 SM, 18:1/17:0 ceramide, 18:1/12:0 glucosylceramide, 18:1/12:0 lactosylceramide, 18:1/12:0 sulfatide (all from Avanti Polar Lipids, USA), and 17:0/17:0/17:0 TAG (Cayman Chemical, USA), then transferred to 10 mL screw cap glass tubes. The homogenization tubes containing beads were then washed with another 0.3 mL methanol, and this wash was combined with the first methanol extract, after which 1.7 mL MTBE was added and the samples were sonicated in an ice-cold sonicating water bath (Thermoline Scientific, Australia) for 30 min. Phase separation was induced by addition of 417 µL of mass spectrometry-grade water followed by vortexing and centrifugation at 1000 × g for 10 min. The upper organic phase was collected into 5 mL glass tubes. The lower phase was re-extracted by adding 1 mL MTBE, 300 μL methanol, and 250 μL water. The organic phases were combined in the 5 mL glass tubes and dried under vacuum in a Savant SC210 SpeedVac (Thermo Scientific), then reconstituted in 500 μL methanol and stored at −20 °C until analysis.
Lipidomic profiling was performed on a QExactive Plus mass spectrometer with heated electrospray ionization (HESI) probe and a Dionex UltiMate 2000 LC pump (Thermo Fisher Scientific). Extracts were resolved on a 2.1 × 100 mm Waters Acquity C18 UPLC column (1.7 µm […]), using a binary gradient in which mobile phase A consisted of acetonitrile:water (60:40), 10 mM ammonium formate, 0.1% formic acid; and mobile phase B was isopropanol:acetonitrile (90:10), 10 mM ammonium formate, 0.1% formic acid[68]. The flow rate was 260 µL/min and column oven 55 °C. Data was acquired in full scan/data-dependent MS^2 mode (full scan resolution 70,000 FWHM, scan range 400–1200 m/z). The ten most abundant ions in each cycle were subjected to MS^2 using an isolation window of 1.4 m/z, collision energy 30 eV, resolution 17,500, maximum integration time 110 ms and dynamic exclusion window 10 s. An exclusion list of background ions was used based on a solvent blank. LipidSearch v4.1.30 software (ThermoFisher Scientific) was used for chromatogram alignment, peak identification and integration. Each lipid peak was manually verified for column elution time and characteristic fragment ions. Data were then exported to an Excel spreadsheet for normalisation of each lipid to its class-specific internal standard, and lipid concentrations were calculated relative to the internal standard.
Data were log transformed, then subjected to two-tailed t-tests adjusted for multiple comparisons using GraphPad PRISM (Benjamini, Krieger and Yekutieli correction, Q = 1%).

[1] = 5 mg/kg daily, 4–6 weeks, HFD group

## C[C@@](N)(CO)CCc1ccc(OCc2ccc(Cl)c(Cl)c2)cc1 [P053, (S)-2-amino-4-(4-(3,4-dichlorobenzyloxy)phenyl)-2-methylbutan-1-ol]
5 mg/kg daily, 4–6 weeks
  HexCer content of SkM: not significantly affected
  levels of common phospholipids in SkM: did not affect
  total ceramide content of SkM: reduced total ceramide content
[1]
  42:2 SM in SkM: significantly increased
  very long chain ceramides (C22:0, C24:0 and C24:1) in SkM: significantly increased
5 mg/kg daily, 4–6 weeks, both diets, not statistically significant
  mean levels of 36:1 SM in SkM, lower than vehicle: 13%
Chow + P053, individual mice
  Ceramide 18:1/16:0 content of skeletal muscle: 3.10 and 1.77 (2×) and 2.74 and 1.05 and 2.59 and 2.04 and 2.73 and 4.80 and 1.58 and 1.47 and 1.10 and 1.69 and 1.86 and 1.78 and 2.17 and 1.48 (2×)
  Ceramide 18:1/18:0 content of skeletal muscle: 20.71 and 17.58 and 23.00 and 14.06 and 16.77 and 18.40 (2×) and 20.26 and 15.08 and 13.86 and 23.04 and 23.06 and 23.01 and 18.78 and 15.44 and 14.24 and 19.21 and 15.87
  Ceramide 18:1/20:0 content of skeletal muscle: 0.50 and 0.38 (2×) and 0.51 and 0.33 and 0.44 and 0.57 and 0.41 and 0.18 (2×) and 0.21 and 0.17 (2×) and 0.22 and 0.15 (2×) and 0.13 and 0.20
  Ceramide 18:1/22:0 content of skeletal muscle: 1.58 and 1.18 and 1.27 and 1.31 and 1.33 and 1.24 and 2.02 and 1.70 and 0.82 and 0.97 and 0.93 and 1.37 and 0.85 and 1.53 and 1.04 (2×) and 0.62 and 0.77
  Ceramide 18:1/24:0 content of skeletal muscle: 2.05 and 1.75 and 2.39 and 1.84 (2×) and 2.22 and 3.08 and 3.05 and 1.41 and 1.81 and 2.08 and 2.47 and 0.10 and 2.48 and 0.14 and 1.18 and 1.87 and 1.61
  Ceramide 18:1/24:1 content of skeletal muscle: 5.19 and 4.17 and 5.42 and 4.06 and 4.86 and 4.12 and 6.25 and 6.63 and 2.73 and 3.16 and 3.08 and 4.65 and 3.22 and 4.69 and 3.70 and 2.46 and 3.14 and 2.75
  Ceramide 18:2/18:0 content of skeletal muscle: 1.63 and 1.36 and 1.77 and 0.81 and 1.04 and 1.34 and 1.47 (2×) and 1.60 and 2.11 and 1.87 and 1.91 and 1.85 and 1.31 and 1.49 and 1.75 and 1.71 and 1.50
  SM 34:1 content of skeletal muscle: 155.00 and 75.29 and 64.44 and 51.84 and 157.48 and 87.87 and 37.17 and 61.63 and 56.39 and 26.64 and 21.61 and 27.95 and 26.10 and 29.76 and 25.67 and 36.05 and 29.79 and 28.45
  SM 36:1 content of skeletal muscle: 408.35 and 391.75 and 244.36 and 209.60 and 257.92 and 303.73 and 198.39 and 281.99 and 211.03 and 160.27 and 169.50 and 130.04 and 157.61 and 130.34 and 143.84 and 173.19 and 158.59 and 154.00
  SM 36:2 content of skeletal muscle: 5.68 and 10.86 and 10.80 and 2.69 and 6.07 and 9.49 and 5.32 and 8.00 and 6.39 and 4.78 and 4.58 and 3.87 and 4.48 and 3.64 and 4.59 and 6.14 and 4.52 and 4.32
  SM 38:1 content of skeletal muscle: 13.22 and 12.48 and 5.72 and 6.13 and 5.91 and 5.41 and 17.63 and 9.33 and 1.53 and 1.84 and 1.68 and 1.39 and 1.34 and 1.51 and 1.41 and 1.37 and 2.56 and 1.65
  SM 40:1 content of skeletal muscle: 28.35 and 29.55 and 12.61 and 11.97 and 14.98 and 15.26 and 24.07 and 17.95 and 17.87 and 21.14 and 17.97 and 25.28 and 16.09 and 25.29 and 21.99 and 14.69 and 26.69 and 18.42
  SM 40:2 content of skeletal muscle: 2.18 and 3.25 and 1.19 and 1.06 and 1.18 and 0.98 and 4.74 and 3.00 and 1.89 and 2.04 and 2.38 and 2.68 and 1.85 and 2.58 and 2.52 and 1.52 and 2.57 and 1.93
  SM 42:1 content of skeletal muscle: 26.96 and 32.88 and 11.84 and 14.58 and 16.55 and 13.22 and 32.58 and 20.65 and 17.62 and 18.82 and 16.13 and 27.77 and 16.56 and 31.99 and 21.25 and 13.55 and 28.43 and 16.15
  SM 42:2 content of skeletal muscle: 78.98 and 85.87 and 38.45 and 39.28 and 45.06 and 42.02 and 67.24 and 61.76 and 56.89 and 58.53 and 52.21 and 80.69 and 50.18 and 74.84 and 63.29 and 51.49 and 78.04 and 54.99
  SM 42:3 content of skeletal muscle: 11.26 and 12.44 and 7.12 and 5.50 and 7.16 and 6.69 and 11.58 and 9.28 and 9.04 and 9.58 and 8.81 and 14.49 and 7.86 and 11.12 and 9.61 and 8.30 and 13.11 and 8.65
HFD + P053
  total SkM TAG content, lower than HFD vehicle group: 60%
HFD + P053, individual mice
  Ceramide 18:1/16:0 content of skeletal muscle: 1.10 and 2.17 and 1.83 and 1.12 (2×) and 2.90 and 1.46 and 0.87 (2×) and 1.73 and 3.22 and 1.34 and 1.89 and 1.27 and 1.41 and 1.14 and 1.04 and 0.99 and 1.01
  Ceramide 18:1/18:0 content of skeletal muscle: 14.13 and 13.78 and 15.90 and 15.58 and 21.96 and 19.36 and 13.96 and 15.88 and 24.31 and 19.32 and 17.61 and 21.70 and 17.37 and 21.41 and 15.56 and 12.14 and 18.07 and 11.49 and 13.22
  Ceramide 18:1/20:0 content of skeletal muscle: 0.45 (2×) and 0.54 and 0.57 and 0.65 and 0.48 and 0.42 and 0.40 and 0.77 and 0.10 (2×) and 0.08 (2×) and 0.06 (2×) and 0.07 (2×) and 0.05 and 0.09
  Ceramide 18:1/22:0 content of skeletal muscle: 1.69 and 1.43 and 1.68 and 1.85 and 2.17 and 1.53 and 1.50 and 1.46 and 2.26 and 1.14 and 1.16 and 1.47 and 1.36 and 1.00 and 1.18 and 0.98 and 1.30 and 1.04 and 1.72
  Ceramide 18:1/24:0 content of skeletal muscle: 1.53 (2×) and 1.50 and 1.85 and 1.78 and 2.27 and 1.57 (2×) and 1.81 and 2.48 and 1.41 and 1.31 and 1.65 and 1.24 and 1.83 and 1.21 and 1.67 and 1.20 and 1.73
  Ceramide 18:1/24:1 content of skeletal muscle: 4.07 and 3.37 and 3.91 and 3.88 and 4.88 and 3.55 (2×) and 3.81 and 5.60 and 2.28 and 2.44 and 3.08 and 2.82 and 2.33 and 2.75 and 2.49 and 2.86 and 2.35 and 3.30
  Ceramide 18:2/18:0 content of skeletal muscle: 0.85 (2×) and 1.05 and 0.95 and 1.06 and 1.53 and 1.34 and 0.98 and 1.27 and 2.27 and 1.58 and 1.22 and 1.29 (2×) and 0.73 and 0.92 and 1.11 and 0.97 and 0.74
  SM 34:1 content of skeletal muscle: 56.88 and 99.05 and 291.61 and 79.88 and 179.42 and 129.66 and 30.83 and 225.53 and 214.19 and 48.41 and 47.17 and 48.35 and 37.16 and 22.64 and 38.24 and 42.99 and 33.41 and 36.54 and 32.79
  SM 36:1 content of skeletal muscle: 417.25 and 223.91 and 402.67 and 173.58 and 151.95 and 224.57 and 278.63 and 314.63 and 349.53 and 221.70 and 178.54 and 207.41 and 149.58 and 139.86 and 137.50 and 198.09 and 163.61 and 154.30 and 147.61
